Laboratory results: PMC9574867, “Discovery and Characterization of Synthesized and FDA-Approved Inhibitors of Clostridial and Bacillary Collagenases” (Journal of Medicinal Chemistry, 2022)
Converted amounts (≈) assume the structure as drawn. “Also recorded” adds a separate entry of the source. Read-outs that look alike come from different tables or passages of the source.

Columns and labels:
[1] = system: ColH; conditions: Figure 1b, cited from earlier work
[2] = system: MDCK II cells infected with B. cereus AH187; type: cell-based, canine
[3] = system: NHDF cells infected with B. cereus; assay: NHDF infection model, cell morphology/attachment and fibrillar collagen (picrosirius red); type: cell-based, human
[4] = system: B. cereus collagenases released in the NHDF infection model; type: cell-based, B. cereus AH187
[5] = system: B. cereus AH187; assay: B. cereus growth inhibition assay; type: cell-based; conditions: Bacillus cereus, read-out: MIC50 (µM) AH187
[6] = molecular target: T1, ColQ1-CU (Bacillus cereus, UniProt B9J3S4); assay: biochemical; parameters: species or system B. cereus strain Q1
T1 sequence (B9J3S4 94-765 limits assumed): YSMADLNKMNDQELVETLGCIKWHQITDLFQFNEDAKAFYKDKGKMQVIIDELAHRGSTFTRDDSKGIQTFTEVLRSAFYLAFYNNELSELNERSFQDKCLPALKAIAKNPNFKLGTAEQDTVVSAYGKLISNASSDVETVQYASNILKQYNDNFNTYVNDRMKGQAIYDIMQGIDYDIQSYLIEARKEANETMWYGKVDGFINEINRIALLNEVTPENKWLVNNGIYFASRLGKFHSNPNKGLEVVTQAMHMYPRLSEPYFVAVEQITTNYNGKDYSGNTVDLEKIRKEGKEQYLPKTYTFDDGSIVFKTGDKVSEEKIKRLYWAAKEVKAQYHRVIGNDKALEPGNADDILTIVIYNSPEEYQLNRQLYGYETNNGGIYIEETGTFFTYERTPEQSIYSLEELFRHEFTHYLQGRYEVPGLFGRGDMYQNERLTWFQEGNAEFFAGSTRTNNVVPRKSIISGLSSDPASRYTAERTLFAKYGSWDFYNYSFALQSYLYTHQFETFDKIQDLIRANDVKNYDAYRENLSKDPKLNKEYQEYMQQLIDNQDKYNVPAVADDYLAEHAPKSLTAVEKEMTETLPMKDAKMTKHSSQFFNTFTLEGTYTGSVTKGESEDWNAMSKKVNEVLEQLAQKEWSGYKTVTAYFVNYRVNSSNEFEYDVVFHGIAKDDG

[7] = molecular target: ColQ1-FL (Bacillus cereus, UniProt B9J3S4); type: biochemical; conditions: 12.5–1.5 μM tested, SDS-PAGE
[8] = molecular target: T2, MMP-2 (Homo sapiens, UniProt P08253); assay: MMP inhibition assay, MMP-2; type: biochemical
T2 construct: catalytic domains of three human MMPs; purchased Sigma-Aldrich
T2 sequence (P08253 110-444 limits assumed): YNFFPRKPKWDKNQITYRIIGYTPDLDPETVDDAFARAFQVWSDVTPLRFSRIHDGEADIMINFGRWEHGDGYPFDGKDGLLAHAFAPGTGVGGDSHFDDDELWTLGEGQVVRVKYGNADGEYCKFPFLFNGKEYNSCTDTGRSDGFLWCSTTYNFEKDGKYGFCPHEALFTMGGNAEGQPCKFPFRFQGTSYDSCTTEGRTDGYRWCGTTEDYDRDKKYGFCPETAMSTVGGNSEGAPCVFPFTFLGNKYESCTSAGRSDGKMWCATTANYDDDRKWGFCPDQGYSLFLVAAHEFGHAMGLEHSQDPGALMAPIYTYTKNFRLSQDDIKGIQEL
Procedure: (§1) To assess the selectivity of the compounds over human MMPs and on other bacterial collagenases, selected compounds were tested against ColG-CU and ColH-PD from C. histolyticum and ColA-CU from B. cereus strain ATCC14579. In addition, the compounds were tested on catalytic domains of three human MMPs, which are characterized by different depths of the S1′ binding pocket (MMP-1 (shallow), −2 (intermediate), and −3 (deep)). They were also tested against other important human off-targets, which are involved in gene expression and the processing of TNF-α; these include HDAC-3, -8, TACE (ADAM-17),[33],[34] and COX-1.
(§2) The MMP inhibition assay (Sigma-Aldrich, Saint Louise, MO) was performed as previously reported and in accordance with the manufacturer’s instructions. The fluorescence signals were measured in a CLARIOstar plate reader (BMG LABTECH, Ortenberg, Germany) at a concentration of 100 μM.

[9] = molecular target: TACE (ADAM-17) (Homo sapiens, UniProt P78536); assay: Human off-target inhibition, TACE; type: biochemical
Chain of TACE (ADAM-17) (P78536 215-824): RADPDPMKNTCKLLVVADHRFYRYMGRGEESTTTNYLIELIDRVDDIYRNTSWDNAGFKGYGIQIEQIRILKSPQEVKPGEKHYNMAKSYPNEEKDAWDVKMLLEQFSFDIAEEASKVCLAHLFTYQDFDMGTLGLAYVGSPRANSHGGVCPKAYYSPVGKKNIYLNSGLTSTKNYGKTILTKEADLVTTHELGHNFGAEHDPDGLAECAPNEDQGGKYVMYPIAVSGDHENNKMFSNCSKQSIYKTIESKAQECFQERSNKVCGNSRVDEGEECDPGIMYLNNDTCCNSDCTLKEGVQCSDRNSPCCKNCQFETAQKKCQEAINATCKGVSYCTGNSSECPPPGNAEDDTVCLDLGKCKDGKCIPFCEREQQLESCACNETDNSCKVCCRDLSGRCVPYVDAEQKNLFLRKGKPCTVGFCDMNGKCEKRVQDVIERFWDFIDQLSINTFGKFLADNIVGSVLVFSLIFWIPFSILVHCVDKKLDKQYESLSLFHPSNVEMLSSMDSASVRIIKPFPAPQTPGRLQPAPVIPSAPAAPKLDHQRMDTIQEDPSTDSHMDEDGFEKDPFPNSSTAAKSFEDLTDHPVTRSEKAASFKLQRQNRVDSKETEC
Procedure: as §1

[10] = molecular target: T1, ColQ1-CU; type: biochemical, B. cereus; conditions: for Reversibility of inhibition, ColQ1-CU: rapid dilution
[11] = molecular target: T3, MMP-1 (Homo sapiens, UniProt P03956); assay: MMP inhibition assay, MMP-1; type: biochemical
T3 construct: catalytic domains of three human MMPs; purchased Sigma-Aldrich
T3 sequence (P03956 98-276 limits assumed): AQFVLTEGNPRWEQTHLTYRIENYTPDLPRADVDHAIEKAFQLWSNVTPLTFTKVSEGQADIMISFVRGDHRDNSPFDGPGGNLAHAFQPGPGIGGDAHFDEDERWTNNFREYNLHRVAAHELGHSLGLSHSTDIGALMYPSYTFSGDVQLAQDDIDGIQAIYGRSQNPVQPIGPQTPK
Procedure: as §1, §2

[12] = in vitro; conditions: human, NHDF cells (normal human dermal fibroblasts)
[13] = in vitro; conditions: human, HEK293 cells (embryonal kidney)
[14] = molecular target: T4, ColG-CU (Hathewaya histolytica, UniProt Q9X721); type: biochemical, C. histolyticum; conditions: rapid dilution
T4 sequence (Q9X721 111-786): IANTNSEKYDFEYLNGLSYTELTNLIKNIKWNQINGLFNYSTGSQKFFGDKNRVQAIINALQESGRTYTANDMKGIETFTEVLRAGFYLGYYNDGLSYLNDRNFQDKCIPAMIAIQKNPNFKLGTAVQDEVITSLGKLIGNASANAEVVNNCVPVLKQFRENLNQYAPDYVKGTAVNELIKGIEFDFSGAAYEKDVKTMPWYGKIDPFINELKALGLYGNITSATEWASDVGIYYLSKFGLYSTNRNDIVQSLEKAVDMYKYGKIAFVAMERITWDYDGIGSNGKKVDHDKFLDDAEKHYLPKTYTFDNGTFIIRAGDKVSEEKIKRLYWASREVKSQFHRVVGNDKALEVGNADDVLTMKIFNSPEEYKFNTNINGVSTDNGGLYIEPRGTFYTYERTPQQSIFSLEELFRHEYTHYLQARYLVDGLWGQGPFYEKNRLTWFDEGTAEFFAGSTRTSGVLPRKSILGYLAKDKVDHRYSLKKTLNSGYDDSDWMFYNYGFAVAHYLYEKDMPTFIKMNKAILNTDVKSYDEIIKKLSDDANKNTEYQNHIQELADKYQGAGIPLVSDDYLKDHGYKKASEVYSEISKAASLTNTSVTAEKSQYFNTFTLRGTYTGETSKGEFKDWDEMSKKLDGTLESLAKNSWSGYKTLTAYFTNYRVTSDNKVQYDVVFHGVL

[15] = in vitro; conditions: human, HepG2 cells (hepatocellular carcinoma)
[16] = molecular target: T5, ColH-PD (Hathewaya histolytica, UniProt Q46085); type: biochemical, C. histolyticum
T5 sequence (Q46085 331-721 limits assumed): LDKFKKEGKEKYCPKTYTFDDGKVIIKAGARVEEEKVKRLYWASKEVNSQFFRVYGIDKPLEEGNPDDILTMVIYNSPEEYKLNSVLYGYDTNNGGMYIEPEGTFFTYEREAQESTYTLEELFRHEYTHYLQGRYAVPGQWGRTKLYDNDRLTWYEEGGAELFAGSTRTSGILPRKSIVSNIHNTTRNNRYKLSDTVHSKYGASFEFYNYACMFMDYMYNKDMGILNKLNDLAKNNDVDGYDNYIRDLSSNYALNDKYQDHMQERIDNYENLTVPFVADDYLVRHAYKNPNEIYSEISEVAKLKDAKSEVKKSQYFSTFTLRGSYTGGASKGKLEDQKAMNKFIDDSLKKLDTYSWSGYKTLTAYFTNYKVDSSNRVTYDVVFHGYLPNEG

[17] = molecular target: COX-1 (Homo sapiens, UniProt P23219); assay: Human off-target inhibition, COX-1; type: biochemical
Chain of COX-1 (P23219 24-599): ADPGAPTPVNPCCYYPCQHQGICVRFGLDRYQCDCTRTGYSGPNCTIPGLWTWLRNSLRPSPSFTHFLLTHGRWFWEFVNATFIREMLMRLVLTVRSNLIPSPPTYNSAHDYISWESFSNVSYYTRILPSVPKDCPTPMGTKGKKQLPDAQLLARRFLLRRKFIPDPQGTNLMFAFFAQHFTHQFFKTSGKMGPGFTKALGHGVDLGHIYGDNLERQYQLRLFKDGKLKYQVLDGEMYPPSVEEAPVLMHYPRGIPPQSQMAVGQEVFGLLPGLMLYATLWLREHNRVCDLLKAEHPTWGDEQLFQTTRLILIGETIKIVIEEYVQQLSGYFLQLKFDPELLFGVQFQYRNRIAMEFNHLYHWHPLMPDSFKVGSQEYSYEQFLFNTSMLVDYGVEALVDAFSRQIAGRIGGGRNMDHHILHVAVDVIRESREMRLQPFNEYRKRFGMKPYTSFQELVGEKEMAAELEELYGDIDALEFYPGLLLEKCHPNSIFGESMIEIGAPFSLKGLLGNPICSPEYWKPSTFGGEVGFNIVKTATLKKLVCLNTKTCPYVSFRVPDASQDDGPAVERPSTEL
Procedure: as §1

[18] = in vitro; conditions: dog, MDCK II cells (Madin–Darby canine kidney II)
[19] = molecular target: T6, ColA-CU (Bacillus cereus, UniProt Q81BJ6); assay: biochemical; type: biochemical, B. cereus strain ATCC14579; conditions: for inhibition at 100 µM: read-out: Percent inhibition of ColA-CU
T6 sequence (Q81BJ6 93-764): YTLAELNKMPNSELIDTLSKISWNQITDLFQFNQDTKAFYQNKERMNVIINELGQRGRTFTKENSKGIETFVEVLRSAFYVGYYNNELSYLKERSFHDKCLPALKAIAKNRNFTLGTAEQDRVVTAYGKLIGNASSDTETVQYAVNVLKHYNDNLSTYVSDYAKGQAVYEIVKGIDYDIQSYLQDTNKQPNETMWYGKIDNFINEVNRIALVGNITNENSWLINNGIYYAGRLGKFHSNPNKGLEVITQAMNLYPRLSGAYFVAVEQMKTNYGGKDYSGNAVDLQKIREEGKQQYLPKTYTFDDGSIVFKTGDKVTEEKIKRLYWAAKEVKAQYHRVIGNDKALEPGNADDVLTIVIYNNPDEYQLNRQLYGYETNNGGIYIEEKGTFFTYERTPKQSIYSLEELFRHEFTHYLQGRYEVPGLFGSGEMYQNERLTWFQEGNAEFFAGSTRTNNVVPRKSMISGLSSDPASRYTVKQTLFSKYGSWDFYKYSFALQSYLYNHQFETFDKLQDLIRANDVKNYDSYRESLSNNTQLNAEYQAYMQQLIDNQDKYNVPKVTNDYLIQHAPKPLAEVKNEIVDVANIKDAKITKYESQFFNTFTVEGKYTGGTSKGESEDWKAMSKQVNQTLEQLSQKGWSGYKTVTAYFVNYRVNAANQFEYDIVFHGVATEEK

[20] = molecular target: T4, ColG-CU; assay: biochemical; type: biochemical, C. histolyticum; conditions: for inhibition at 100 µM: read-out: Percent inhibition of ColG-CU
[21] = molecular target: T6, ColA-CU; type: biochemical, B. cereus; conditions: rapid dilution
[22] = molecular target: T7, HDAC-8 (Homo sapiens, UniProt Q9BY41); assay: Human off-target inhibition, HDAC-8; type: biochemical
T7 sequence (Q9BY41 1-377): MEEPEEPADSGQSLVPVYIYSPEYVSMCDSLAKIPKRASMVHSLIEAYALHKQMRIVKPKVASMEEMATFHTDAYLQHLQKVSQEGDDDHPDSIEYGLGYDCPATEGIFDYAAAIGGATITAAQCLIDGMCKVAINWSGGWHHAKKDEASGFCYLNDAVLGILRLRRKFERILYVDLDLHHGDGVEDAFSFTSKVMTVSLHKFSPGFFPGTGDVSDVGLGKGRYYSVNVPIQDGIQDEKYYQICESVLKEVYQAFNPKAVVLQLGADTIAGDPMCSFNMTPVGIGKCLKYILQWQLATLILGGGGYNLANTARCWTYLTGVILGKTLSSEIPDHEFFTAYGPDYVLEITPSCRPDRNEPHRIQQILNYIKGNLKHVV
Procedure: as §1

[23] = molecular target: T8, MMP-3 (Homo sapiens, UniProt P08254); assay: MMP inhibition assay, MMP-3; type: biochemical
T8 construct: catalytic domains of three human MMPs; purchased Sigma-Aldrich
T8 sequence (P08254 100-272 limits assumed): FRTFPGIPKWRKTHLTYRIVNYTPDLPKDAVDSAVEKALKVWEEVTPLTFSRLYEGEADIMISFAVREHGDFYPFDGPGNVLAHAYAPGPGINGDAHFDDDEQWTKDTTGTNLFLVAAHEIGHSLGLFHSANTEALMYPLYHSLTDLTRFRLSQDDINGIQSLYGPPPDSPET
Procedure: as §1, §2

[24] = molecular target: HDAC-3 (Homo sapiens, UniProt O15379); assay: Human off-target inhibition, HDAC-3; type: biochemical
Chain of HDAC-3 (O15379 whole entry): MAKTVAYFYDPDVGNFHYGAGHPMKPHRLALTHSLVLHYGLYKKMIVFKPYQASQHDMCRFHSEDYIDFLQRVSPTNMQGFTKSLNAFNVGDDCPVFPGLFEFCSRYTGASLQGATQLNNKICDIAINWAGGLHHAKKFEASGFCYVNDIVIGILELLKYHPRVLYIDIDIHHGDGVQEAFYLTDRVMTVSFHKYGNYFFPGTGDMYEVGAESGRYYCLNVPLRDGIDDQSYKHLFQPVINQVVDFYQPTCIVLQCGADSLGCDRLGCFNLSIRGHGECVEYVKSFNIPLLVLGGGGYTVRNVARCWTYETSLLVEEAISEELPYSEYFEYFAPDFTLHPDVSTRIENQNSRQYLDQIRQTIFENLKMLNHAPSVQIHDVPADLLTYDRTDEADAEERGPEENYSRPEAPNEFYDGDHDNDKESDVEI
Chain of HDAC-3 (Q9Y618 395-489 partner limits assumed): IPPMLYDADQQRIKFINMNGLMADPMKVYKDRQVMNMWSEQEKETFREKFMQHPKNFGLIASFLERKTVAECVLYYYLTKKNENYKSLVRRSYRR
Procedure: as §1

[25] = molecular target: T5, ColH-PD; assay: biochemical; type: biochemical, C. histolyticum; conditions: for inhibition at 100 µM: read-out: Percent inhibition of ColH-PD
[26] = system: B. cereus AH187 infection; type: in vivo, Galleria mellonella; conditions: for Increase in survival of infected larvae: 100 μM; for Survival of infected larvae vs control without inhibitor: 37 °C, 3 days
[27] = molecular target: T1, ColQ1-CU; type: binding, B. cereus; conditions: intact protein HPLC-MS, overnight treatment
[28] = system: Galleria mellonella larvae; assay: Galleria mellonella larvae treated with compound only in PBS; type: in vivo; conditions: no bacteria
Procedure: Figure 8 Survival analysis of Galleria mellonella larvae treated with Bacillus cereus AH187 with and without 14 and tiludronate disodium. Each curve represents results of three independent experiments; the statistical difference between groups treated with 100, 50, and 25 μM of compound 14 and B. cereus AH187 and with the group treated only with B. cereus AH187 is p < 0.0001, p = 0.0039, and p = 0.0173, respectively. The statistical difference between groups treated with 100 μM tiludronate disodium and with B. cereus AH187 is p = 0.0032 (log-rank test). The survival rate for the larvae treated with compound 14 and tiludronate disodium in PBS was 100%.
G. mellonella larvae were purchased from a fishing store. Injections were carried out using an LA120 syringe pump (Landgraf Laborsysteme, Langenhagen, Germany) equipped with 1 mL Injekt-F tuberculin syringes (B. Braun, Melsungen, Germany) and Sterican 0.30 × […], 30 G × 1.5 needles (B. Braun). The larvae were divided into five groups depending on their treatment: (i) sterile PBS, (ii) no injection, (iii) only compound, (iv) BC AH187 bacterial suspension, and (v) BC AH187 bacterial suspension with compound. Larvae were incubated at 37 °C for 3 days and inspected twice daily. The total larvae used in all three experiments were 40 larvae per group.

[29] = AH187, BHI medium, 37 °C, 48 h, 200–3 μM

## CC(=O)c1ccc(NC(=O)CS)cc1 [Compound 4b]
[1]; recently identified inhibitors
  IC50: 0.017 µM

## CC(=O)c1ccc(N2C(=O)CC(S)C2=O)cc1 (centres unmarked) [Compound 5]
[1]; 100 μM
  % of inhibition at 100 μM (ColH): 96%

## O=P(O)(O)c1nc2ccc(Br)cc2nc1P(=O)(O)O [Compound 10, (6-Bromoquinoxaline-2,3-diyl)bis(phosphonic acid)]
[2]
  TEER of infected MDCK II cells: failed to sustain the TEER of the infected cells
[3]; B. cereus infection, 5 h
  Effect on cell morphology and ECM collagen content of infected NHDF cells: smaller effect at all concentrations tested (except for 10, which resulted in higher cell viability and attachment at 100 μM)
[4]
  Inhibitory effect on gelatinolytic activity of secreted collagenases: inhibited the collagenase activity toward gelatin only marginally at 100 μM
[5]; [29]
  MIC50: 200 µM (≈ 73.8 µg/mL)
[6]
  IC50: 2.5 ± 0.2 µM
[7]
  Protection of Col I chains from cleavage by ColQ1-FL: showed inhibition only at 12.5 μM

## O=P(O)(O)c1nc2ccc(-c3ccc(Cl)cc3)cc2nc1P(=O)(O)O [Compound 15, (6-(4-Chlorophenyl)quinoxaline-2,3-diyl)bis(phosphonic acid)]
[2]
  TEER of infected MDCK II cells: preserve the TEER value
[8]
  IC50: > 100 µM
[9]
  IC50: > 100 µM
[10]; 30 min preincubation at 10-fold IC50, 100-fold dilution
  Residual activity after rapid dilution: less than 9%
[10]
  Reversibility of inhibition, ColQ1-CU: irreversible or very slowly dissociating inhibitors
[11]
  IC50: > 100 µM
[12]
  IC50: > 200 µM
[3]; B. cereus infection, 5 h
  Concentration showing dose-dependent effects on NHDF morphology, fibrillar ECM collagen content and LDH release: ≥ 100 μM
[13]
  IC50: > 100 µM
[14]
  Reversibility of inhibition, ColG: rapidly reversible inhibitors
[15]
  IC50: > 100 µM
[4]
  Inhibitory effect on gelatinolytic activity of secreted collagenases: clear dose-dependent inhibitory effect on gelatin turnover
[16]
  Reversibility of inhibition, ColH: reversed compared to ColA
[17]
  IC50: > 100 µM
[18]
  IC50: > 200 µM
[19]
  inhibition at 100 µM: 86 ± 8%
[20]
  inhibition at 100 µM: 70 ± 8%
[21]
  Reversibility of inhibition, ColA-CU: progress curve typical for slowly dissociating inhibitors
[22]
  IC50: > 100 µM
[5]; [29]
  MIC50: 100 µM (≈ 40.1 µg/mL)
[6]
  IC50: 10.5 µM
[23]
  IC50: > 100 µM
[7]
  Protection of Col I chains from cleavage by ColQ1-FL: inhibited the collagenase activity at all concentrations tested
[24]
  IC50: > 100 µM
[25]
  inhibition at 100 µM: 97 ± 5%
[26]; 25 μM
  Effect on survival of infected larvae: reduced effect
[26]
  Increase in survival of infected larvae: about 35%
  Survival of infected larvae vs control without inhibitor: ameliorated the survival of the larvae in a dose-dependent manner

## CC(=O)Nc1ccccc1OCc1cn(CCNC(=O)C(Cc2ccccc2)C(=O)NO)nn1 (centres unmarked) [Compound 33, N-[2-[4-[(2-Acetamidophenoxy)methyl]triazol-1-yl]ethyl]-2-benzyl-3-(hydroxyamino)-3-oxo-propanamide]
[10]
  Reversibility of inhibition, ColQ1-CU: rapidly reversible inhibitors
[3]; B. cereus infection, 5 h
  Effect on cell morphology and ECM collagen content of infected NHDF cells: neither able to rescue cell morphology nor able to maintain the collagen content of the ECM
[14]
  Reversibility of inhibition, ColG: rapidly reversible inhibitors
[4]
  Inhibitory effect on gelatinolytic activity of secreted collagenases: no inhibitory effect on the collagenase in the zymography at all tested concentrations; also recorded: no inhibition of the collagenase in the gelatin zymography was detected
[16]
  Reversibility of inhibition, ColH: rapidly reversible inhibitors
[19]
  Ki: 4.7 ± 0.3 µM
[20]
  Ki: 18.4 ± 0.6 µM
[21]
  Reversibility of inhibition, ColA-CU: rapidly reversible inhibitors
[6]
  IC50: 1.6 ± 0.1 µM
  Ki: 0.82 ± 0.07 µM
[25]
  Ki: 1.7 ± 0.2 µM

## CNC(=O)[C@H](Cc1c[nH]c2ccccc12)NC(=O)[C@@H](CC(=O)NO)CC(C)C [Ilomastat, reference compound]
[27]
  Covalent modification of ColQ1-CU: No molecular masses displayed a mass shift indicating a covalently bound inhibitor

## O=P([O-])(O)C(Sc1ccc(Cl)cc1)P(=O)([O-])O.[Na+].[Na+] [Tiludronate disodium, reference compound]
[8]
  IC50: > 100 µM
[9]
  IC50: > 100 µM
[11]
  IC50: 50 ± 10 µM
[3]
  Concentration showing dose-dependent effects on NHDF morphology, fibrillar ECM collagen content and LDH release: ≥ 100 μM
[4]
  Concentration giving complete inhibition of gelatinolytic activity: 100 µM
[17]
  IC50: > 100 µM
[19]
  inhibition at 100 µM: 72 ± 2%
[20]
  inhibition at 100 µM: 28 ± 7%
[22]
  IC50: > 100 µM
[28]
  Survival rate of larvae treated with compound in PBS: 100%
[5]; AH187, 48 h
  MIC50: 200 µM
[6]
  inhibition at 100 µM: 63 ± 3%
[23]
  IC50: > 100 µM
[24]
  IC50: > 100 µM
[25]
  inhibition at 100 µM: 91 ± 2%
[26]
  Increase in survival of infected larvae: 40%
  Survival of infected larvae vs control without inhibitor: ameliorated the survival of the larvae in a dose-dependent manner
